{"source": "paper PMC10905675", "about": "“INX-315, a Selective CDK2 Inhibitor, Induces Cell Cycle Arrest and Senescence in Solid Tumors” (Cancer Discovery, 2023)", "experiment_in_all_cases": "SelectScreen LanthaScreen Binding", "conditions_in_all_cases": "INX-0315 at 100nM", "key": {"FYN A": {"target": "T1, FYN A (Homo sapiens, UniProt P06241)", "T1 construct": "purchased Thermo Fisher Scientific SelectScreen (plus Nanosyn / Reaction Biology for CDK/cyclin lines)", "source_text": "(§1) INX-315 was first evaluated in the SelectScreen Biochemical Kinase Profiling at Thermo Fisher Scientific (Madison, WI). The primary screen consisted of INX-315 dosed at a single concentration of 100 nmol/L in 1% DMSO across each platform within the SelectScreen array of assays, LanthaScreen Eu Kinase Binding Assay; AdaptaScreen; and Z'LyteScreen using preestablished conditions at Thermo Fisher Scientific as shown in Supplementary Table S2. […] The follow-up screen consisted of 10-point dose–response curves for INX-315 from 1 µmol/L to 0.0495 nmol/L."}, "MAPK8 (JNK1)": {"target": "T2, MAPK8 (JNK1) (Homo sapiens, UniProt P45983)", "T2 construct": "purchased Thermo Fisher Scientific SelectScreen (plus Nanosyn / Reaction Biology for CDK/cyclin lines)", "source_text": "as §1"}, "ACVR1 (ALK2)": {"target": "T3, ACVR1 (ALK2) (Homo sapiens, UniProt Q04771)", "T3 construct": "purchased Thermo Fisher Scientific SelectScreen (plus Nanosyn / Reaction Biology for CDK/cyclin lines)", "source_text": "as §1"}, "MAP2K1 (MEK1)": {"target": "T4, MAP2K1 (MEK1) (Homo sapiens, UniProt Q02750)", "T4 construct": "purchased Thermo Fisher Scientific SelectScreen (plus Nanosyn / Reaction Biology for CDK/cyclin lines)", "source_text": "as §1"}, "VRK2": {"target": "T5, VRK2 (Homo sapiens, UniProt Q86Y07)", "T5 construct": "purchased Thermo Fisher Scientific SelectScreen (plus Nanosyn / Reaction Biology for CDK/cyclin lines)", "source_text": "as §1"}, "ACVRL1 (ALK1)": {"target": "T6, ACVRL1 (ALK1) (Homo sapiens, UniProt P37023)", "T6 construct": "purchased Thermo Fisher Scientific SelectScreen (plus Nanosyn / Reaction Biology for CDK/cyclin lines)", "source_text": "as §1"}, "PKN2 (PRK2)": {"target": "T7, PKN2 (PRK2) (Homo sapiens, UniProt Q16513)", "T7 construct": "purchased Thermo Fisher Scientific SelectScreen (plus Nanosyn / Reaction Biology for CDK/cyclin lines)", "source_text": "as §1"}, "ULK1": {"target": "T8, ULK1 (Homo sapiens, UniProt O75385)", "T8 construct": "purchased Thermo Fisher Scientific SelectScreen (plus Nanosyn / Reaction Biology for CDK/cyclin lines)", "source_text": "as §1"}, "WEE1": {"target": "T9, WEE1 (Homo sapiens, UniProt P30291)", "T9 construct": "purchased Thermo Fisher Scientific SelectScreen (plus Nanosyn / Reaction Biology for CDK/cyclin lines)", "source_text": "as §1"}, "KIT V559D T670I": {"target": "T10, KIT V559D T670I (Homo sapiens, UniProt P10721, T670I/V559D)", "T10 construct": "purchased Thermo Fisher Scientific SelectScreen (plus Nanosyn / Reaction Biology for CDK/cyclin lines)", "T10 sequence (P10721 26-976 V559D/T670I)": "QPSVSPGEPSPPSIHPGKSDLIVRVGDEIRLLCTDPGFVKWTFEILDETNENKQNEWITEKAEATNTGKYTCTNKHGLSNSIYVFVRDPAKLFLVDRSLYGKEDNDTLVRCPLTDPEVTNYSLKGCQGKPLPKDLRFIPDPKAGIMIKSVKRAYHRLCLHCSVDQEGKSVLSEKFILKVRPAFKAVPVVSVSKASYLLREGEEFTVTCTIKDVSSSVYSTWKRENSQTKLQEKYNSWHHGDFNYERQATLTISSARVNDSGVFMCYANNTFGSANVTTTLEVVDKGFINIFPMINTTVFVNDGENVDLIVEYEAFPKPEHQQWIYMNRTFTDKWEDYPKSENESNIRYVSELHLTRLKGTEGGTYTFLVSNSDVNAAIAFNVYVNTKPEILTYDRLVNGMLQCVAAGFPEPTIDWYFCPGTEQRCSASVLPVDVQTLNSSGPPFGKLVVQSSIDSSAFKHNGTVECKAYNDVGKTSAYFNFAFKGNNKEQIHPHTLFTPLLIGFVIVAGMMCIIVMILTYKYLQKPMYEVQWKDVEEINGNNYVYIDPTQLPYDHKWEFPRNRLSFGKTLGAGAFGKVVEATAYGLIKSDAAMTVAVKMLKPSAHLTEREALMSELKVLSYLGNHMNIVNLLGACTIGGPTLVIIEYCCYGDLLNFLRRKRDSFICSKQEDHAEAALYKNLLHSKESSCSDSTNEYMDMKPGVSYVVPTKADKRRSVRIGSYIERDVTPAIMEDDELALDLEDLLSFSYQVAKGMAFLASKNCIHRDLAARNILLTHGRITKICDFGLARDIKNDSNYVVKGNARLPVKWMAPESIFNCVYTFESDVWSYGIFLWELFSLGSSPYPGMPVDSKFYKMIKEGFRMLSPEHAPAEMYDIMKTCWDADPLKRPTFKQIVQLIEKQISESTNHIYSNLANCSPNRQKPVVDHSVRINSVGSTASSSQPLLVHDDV", "source_text": "as §1"}, "MAP2K6 (MKK6)": {"target": "T11, MAP2K6 (MKK6) (Homo sapiens, UniProt P52564)", "T11 construct": "purchased Thermo Fisher Scientific SelectScreen (plus Nanosyn / Reaction Biology for CDK/cyclin lines)", "source_text": "as §1"}, "CDK9 (Inactive)": {"target": "T12, CDK9 (Inactive) (Homo sapiens, UniProt P50750)", "T12 construct": "purchased Thermo Fisher Scientific SelectScreen (plus Nanosyn / Reaction Biology for CDK/cyclin lines)", "source_text": "as §1"}, "AMPK (A2/B2/G2)": {"target": "T13, AMPK (A2/B2/G2) (Homo sapiens, UniProt P54646)", "T13 construct": "purchased Thermo Fisher Scientific SelectScreen (plus Nanosyn / Reaction Biology for CDK/cyclin lines)", "source_text": "as §1"}, "ERN2": {"target": "T14, ERN2 (Homo sapiens, UniProt Q76MJ5)", "T14 construct": "purchased Thermo Fisher Scientific SelectScreen (plus Nanosyn / Reaction Biology for CDK/cyclin lines)", "T14 sequence (Q76MJ5 35-926)": "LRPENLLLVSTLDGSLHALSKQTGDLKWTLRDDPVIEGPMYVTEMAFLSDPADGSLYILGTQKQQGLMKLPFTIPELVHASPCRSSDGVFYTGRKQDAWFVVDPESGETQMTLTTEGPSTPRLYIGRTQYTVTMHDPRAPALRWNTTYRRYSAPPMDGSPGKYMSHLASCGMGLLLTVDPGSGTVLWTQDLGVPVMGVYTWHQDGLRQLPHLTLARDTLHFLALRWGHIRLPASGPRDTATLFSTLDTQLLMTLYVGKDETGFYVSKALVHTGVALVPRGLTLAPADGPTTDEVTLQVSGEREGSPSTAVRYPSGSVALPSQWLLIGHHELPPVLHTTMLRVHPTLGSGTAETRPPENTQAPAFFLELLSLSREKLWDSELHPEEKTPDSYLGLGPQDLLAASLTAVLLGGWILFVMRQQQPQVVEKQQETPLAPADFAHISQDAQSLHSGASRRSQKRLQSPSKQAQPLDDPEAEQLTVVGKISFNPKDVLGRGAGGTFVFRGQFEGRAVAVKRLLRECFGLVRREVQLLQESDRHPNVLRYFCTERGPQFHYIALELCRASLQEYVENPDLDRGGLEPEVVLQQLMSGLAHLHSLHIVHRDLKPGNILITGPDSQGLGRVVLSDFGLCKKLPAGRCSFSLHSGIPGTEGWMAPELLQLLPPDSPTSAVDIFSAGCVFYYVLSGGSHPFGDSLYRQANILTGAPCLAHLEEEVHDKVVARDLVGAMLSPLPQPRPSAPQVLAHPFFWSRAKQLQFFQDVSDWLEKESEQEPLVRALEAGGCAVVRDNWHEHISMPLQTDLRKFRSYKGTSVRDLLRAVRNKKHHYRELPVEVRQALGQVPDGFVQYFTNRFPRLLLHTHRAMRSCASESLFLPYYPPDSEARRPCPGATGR", "source_text": "as §1"}, "ANKK1": {"target": "T15, ANKK1 (Homo sapiens, UniProt Q8NFD2)", "T15 construct": "purchased Thermo Fisher Scientific SelectScreen (plus Nanosyn / Reaction Biology for CDK/cyclin lines)", "source_text": "as §1"}, "FLT3 ITD": {"tested_on": "FLT3 ITD", "source_text": "as §1"}, "WNK3": {"target": "T16, WNK3 (Homo sapiens, UniProt Q9BYP7)", "T16 construct": "purchased Thermo Fisher Scientific SelectScreen (plus Nanosyn / Reaction Biology for CDK/cyclin lines)", "source_text": "as §1"}, "RIPK3": {"target": "T17, RIPK3 (Homo sapiens, UniProt Q9Y572)", "T17 construct": "purchased Thermo Fisher Scientific SelectScreen (plus Nanosyn / Reaction Biology for CDK/cyclin lines)", "source_text": "as §1"}, "MAP3K11 (MLK3)": {"target": "T18, MAP3K11 (MLK3) (Homo sapiens, UniProt Q16584)", "T18 construct": "purchased Thermo Fisher Scientific SelectScreen (plus Nanosyn / Reaction Biology for CDK/cyclin lines)", "source_text": "as §1"}, "CDK3/cyclin E1": {"target": "T19, CDK3/cyclin E1 (Homo sapiens, UniProt Q00526)", "T19 construct": "purchased BPS 40103", "source_text": "as §1"}, "ALK L1196M": {"target": "T20, ALK L1196M (Homo sapiens, UniProt Q9UM73, L1196M)", "T20 construct": "purchased Thermo Fisher Scientific SelectScreen (plus Nanosyn / Reaction Biology for CDK/cyclin lines)", "T20 sequence (Q9UM73 19-1620 L1196M)": "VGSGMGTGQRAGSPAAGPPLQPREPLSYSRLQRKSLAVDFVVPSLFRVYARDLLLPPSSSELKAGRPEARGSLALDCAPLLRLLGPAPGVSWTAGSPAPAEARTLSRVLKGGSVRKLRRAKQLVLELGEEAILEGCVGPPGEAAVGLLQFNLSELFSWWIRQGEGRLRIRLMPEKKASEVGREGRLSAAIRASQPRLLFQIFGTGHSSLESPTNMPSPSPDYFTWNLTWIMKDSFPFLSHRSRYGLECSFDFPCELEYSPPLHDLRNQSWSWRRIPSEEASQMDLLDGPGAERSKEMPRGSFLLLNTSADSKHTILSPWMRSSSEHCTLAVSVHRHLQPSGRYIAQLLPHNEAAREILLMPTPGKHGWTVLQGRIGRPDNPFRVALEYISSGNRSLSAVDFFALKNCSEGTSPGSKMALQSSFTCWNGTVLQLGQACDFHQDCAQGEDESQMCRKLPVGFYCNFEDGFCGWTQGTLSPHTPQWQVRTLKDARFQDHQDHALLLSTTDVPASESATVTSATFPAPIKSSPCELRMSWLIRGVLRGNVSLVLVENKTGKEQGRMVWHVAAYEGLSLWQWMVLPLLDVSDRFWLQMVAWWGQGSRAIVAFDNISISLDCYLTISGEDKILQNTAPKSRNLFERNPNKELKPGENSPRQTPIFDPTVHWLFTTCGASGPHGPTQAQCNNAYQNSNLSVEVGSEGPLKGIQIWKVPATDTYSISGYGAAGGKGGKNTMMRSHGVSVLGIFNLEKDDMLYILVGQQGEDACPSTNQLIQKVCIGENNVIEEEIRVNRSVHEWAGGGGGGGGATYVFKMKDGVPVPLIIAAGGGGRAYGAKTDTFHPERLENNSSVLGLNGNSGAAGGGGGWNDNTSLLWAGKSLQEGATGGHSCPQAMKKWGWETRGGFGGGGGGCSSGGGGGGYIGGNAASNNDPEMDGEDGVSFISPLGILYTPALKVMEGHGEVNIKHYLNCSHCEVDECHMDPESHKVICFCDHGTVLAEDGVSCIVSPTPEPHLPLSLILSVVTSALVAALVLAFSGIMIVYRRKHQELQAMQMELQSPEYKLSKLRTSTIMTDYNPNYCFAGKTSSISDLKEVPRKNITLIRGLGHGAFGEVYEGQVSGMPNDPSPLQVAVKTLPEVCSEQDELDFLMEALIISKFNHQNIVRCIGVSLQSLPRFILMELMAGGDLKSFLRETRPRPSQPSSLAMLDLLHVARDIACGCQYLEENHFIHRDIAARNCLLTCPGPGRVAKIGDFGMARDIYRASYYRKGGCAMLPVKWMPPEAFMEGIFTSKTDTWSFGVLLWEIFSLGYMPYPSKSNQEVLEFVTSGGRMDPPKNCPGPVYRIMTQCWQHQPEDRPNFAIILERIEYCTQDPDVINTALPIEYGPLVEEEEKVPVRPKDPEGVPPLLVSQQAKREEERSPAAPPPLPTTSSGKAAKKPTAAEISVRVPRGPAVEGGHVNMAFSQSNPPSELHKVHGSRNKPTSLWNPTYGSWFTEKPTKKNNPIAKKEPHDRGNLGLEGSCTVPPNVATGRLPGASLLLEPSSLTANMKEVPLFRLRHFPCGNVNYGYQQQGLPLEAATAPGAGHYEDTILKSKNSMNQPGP", "source_text": "as §1"}, "DYRK2": {"target": "T21, DYRK2 (Homo sapiens, UniProt Q92630)", "T21 construct": "purchased Thermo Fisher Scientific SelectScreen (plus Nanosyn / Reaction Biology for CDK/cyclin lines)", "source_text": "as §1"}, "PKMYT1": {"target": "T22, PKMYT1 (Homo sapiens, UniProt Q99640)", "T22 construct": "purchased Thermo Fisher Scientific SelectScreen (plus Nanosyn / Reaction Biology for CDK/cyclin lines)", "source_text": "as §1"}, "TESK2": {"target": "T23, TESK2 (Homo sapiens, UniProt Q96S53)", "T23 construct": "purchased Thermo Fisher Scientific SelectScreen (plus Nanosyn / Reaction Biology for CDK/cyclin lines)", "source_text": "as §1"}, "WNK1": {"target": "T24, WNK1 (Homo sapiens, UniProt Q9H4A3)", "T24 construct": "purchased Thermo Fisher Scientific SelectScreen (plus Nanosyn / Reaction Biology for CDK/cyclin lines)", "source_text": "as §1"}, "ACVR2A": {"target": "T25, ACVR2A (Homo sapiens, UniProt P27037)", "T25 construct": "purchased Thermo Fisher Scientific SelectScreen (plus Nanosyn / Reaction Biology for CDK/cyclin lines)", "source_text": "as §1"}, "ALK R1275Q": {"target": "T26, ALK R1275Q (Homo sapiens, UniProt Q9UM73, R1275Q)", "T26 construct": "purchased Thermo Fisher Scientific SelectScreen (plus Nanosyn / Reaction Biology for CDK/cyclin lines)", "source_text": "as §1"}, "CDK13/cyclin K": {"target": "T27, CDK13/cyclin K (Homo sapiens, UniProt Q14004)", "T27 construct": "purchased Thermo Fisher Scientific SelectScreen (plus Nanosyn / Reaction Biology for CDK/cyclin lines)", "source_text": "as §1"}, "MAP3K3 (MEKK3)": {"target": "T28, MAP3K3 (MEKK3) (Homo sapiens, UniProt Q99759)", "T28 construct": "purchased Thermo Fisher Scientific SelectScreen (plus Nanosyn / Reaction Biology for CDK/cyclin lines)", "source_text": "as §1"}, "CASK": {"target": "T29, CASK (Homo sapiens, UniProt O14936)", "T29 construct": "purchased Thermo Fisher Scientific SelectScreen (plus Nanosyn / Reaction Biology for CDK/cyclin lines)", "source_text": "as §1"}, "CAMKK2 (CaMKK beta)": {"target": "T30, CAMKK2 (CaMKK beta) (Homo sapiens, UniProt Q96RR4)", "T30 construct": "purchased Thermo Fisher Scientific SelectScreen (plus Nanosyn / Reaction Biology for CDK/cyclin lines)", "source_text": "as §1"}, "CDK2/cyclin E1": {"target": "T31, CDK2/cyclin E1 (Homo sapiens, UniProt P24941)", "T31 construct": "purchased Millipore 14-475", "source_text": "as §1"}, "KIT D816V": {"target": "T32, KIT D816V (Homo sapiens, UniProt P10721, D816V)", "T32 construct": "purchased Thermo Fisher Scientific SelectScreen (plus Nanosyn / Reaction Biology for CDK/cyclin lines)", "source_text": "as §1"}, "TEK (TIE2) Y1108F": {"target": "T33, TEK (TIE2) Y1108F (Homo sapiens, UniProt Q02763, Y1108F)", "T33 construct": "purchased Thermo Fisher Scientific SelectScreen (plus Nanosyn / Reaction Biology for CDK/cyclin lines)", "T33 sequence (Q02763 23-1124 Y1108F)": "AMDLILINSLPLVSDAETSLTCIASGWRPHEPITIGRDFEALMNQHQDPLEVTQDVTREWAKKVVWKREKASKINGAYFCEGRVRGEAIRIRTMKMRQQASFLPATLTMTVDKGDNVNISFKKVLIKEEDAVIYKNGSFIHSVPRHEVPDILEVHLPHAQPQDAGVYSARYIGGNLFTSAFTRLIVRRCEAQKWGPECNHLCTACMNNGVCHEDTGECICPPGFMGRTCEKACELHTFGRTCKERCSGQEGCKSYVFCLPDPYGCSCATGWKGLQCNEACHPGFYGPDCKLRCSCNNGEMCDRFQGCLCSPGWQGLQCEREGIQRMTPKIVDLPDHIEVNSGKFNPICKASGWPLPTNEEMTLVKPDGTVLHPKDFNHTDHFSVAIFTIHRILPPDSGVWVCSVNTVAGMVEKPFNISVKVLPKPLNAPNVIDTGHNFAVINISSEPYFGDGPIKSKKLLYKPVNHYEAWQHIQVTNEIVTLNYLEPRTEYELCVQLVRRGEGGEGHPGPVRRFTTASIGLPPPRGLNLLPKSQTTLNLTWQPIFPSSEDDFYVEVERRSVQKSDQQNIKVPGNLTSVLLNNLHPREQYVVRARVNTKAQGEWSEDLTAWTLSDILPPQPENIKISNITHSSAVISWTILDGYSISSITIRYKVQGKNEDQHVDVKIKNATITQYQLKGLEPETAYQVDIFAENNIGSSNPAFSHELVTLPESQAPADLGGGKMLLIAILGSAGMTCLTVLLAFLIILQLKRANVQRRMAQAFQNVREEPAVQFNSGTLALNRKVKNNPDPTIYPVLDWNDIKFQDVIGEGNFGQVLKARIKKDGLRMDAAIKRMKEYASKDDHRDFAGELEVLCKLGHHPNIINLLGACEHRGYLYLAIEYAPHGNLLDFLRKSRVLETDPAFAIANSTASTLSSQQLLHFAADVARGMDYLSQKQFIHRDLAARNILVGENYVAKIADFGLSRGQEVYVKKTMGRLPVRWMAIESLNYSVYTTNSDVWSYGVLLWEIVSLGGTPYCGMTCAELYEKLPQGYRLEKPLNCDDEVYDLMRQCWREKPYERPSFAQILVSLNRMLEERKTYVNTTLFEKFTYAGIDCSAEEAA", "source_text": "as §1"}, "KIT Y823D": {"target": "T34, KIT Y823D (Homo sapiens, UniProt P10721, Y823D)", "T34 construct": "purchased Thermo Fisher Scientific SelectScreen (plus Nanosyn / Reaction Biology for CDK/cyclin lines)", "source_text": "as §1"}, "DDR1": {"target": "T35, DDR1 (Homo sapiens, UniProt Q08345)", "T35 construct": "purchased Thermo Fisher Scientific SelectScreen (plus Nanosyn / Reaction Biology for CDK/cyclin lines)", "source_text": "as §1"}, "ACVR2B": {"target": "T36, ACVR2B (Homo sapiens, UniProt Q13705)", "T36 construct": "purchased Thermo Fisher Scientific SelectScreen (plus Nanosyn / Reaction Biology for CDK/cyclin lines)", "T36 sequence (Q13705 19-512)": "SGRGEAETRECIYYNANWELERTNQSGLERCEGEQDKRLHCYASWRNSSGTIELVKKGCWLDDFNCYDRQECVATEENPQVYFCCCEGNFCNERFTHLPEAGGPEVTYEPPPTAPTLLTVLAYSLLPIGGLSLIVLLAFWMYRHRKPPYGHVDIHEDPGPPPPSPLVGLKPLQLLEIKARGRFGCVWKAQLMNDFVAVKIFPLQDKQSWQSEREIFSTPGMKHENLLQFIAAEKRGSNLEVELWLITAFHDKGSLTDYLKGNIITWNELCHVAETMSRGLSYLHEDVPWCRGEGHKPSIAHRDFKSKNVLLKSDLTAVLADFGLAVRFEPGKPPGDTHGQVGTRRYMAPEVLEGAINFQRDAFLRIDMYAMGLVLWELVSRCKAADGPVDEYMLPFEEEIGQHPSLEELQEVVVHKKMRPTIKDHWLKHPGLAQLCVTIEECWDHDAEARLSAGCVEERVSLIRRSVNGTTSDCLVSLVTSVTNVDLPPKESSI", "source_text": "as §1"}, "KIT D816H": {"target": "T37, KIT D816H (Homo sapiens, UniProt P10721, D816H)", "T37 construct": "purchased Thermo Fisher Scientific SelectScreen (plus Nanosyn / Reaction Biology for CDK/cyclin lines)", "T37 sequence (P10721 26-976 D816H)": "as the sequence (P10721 26-976 V559D/T670I) above, with D534V, I645T, D791H counted along it", "source_text": "as §1"}}, "data": [{"smiles": "NS(=O)(=O)c1ccc(Nc2ncc3cc4n(c3n2)C2(CCCCC2)C(=O)NN4)cc1", "note": "[INX-315]", "values": [{"measurement": "inhibition at 0.1 µM", "setting": "FYN A", "value": 7, "unit": "%"}, {"measurement": "inhibition at 0.1 µM", "setting": "MAPK8 (JNK1)", "value": 18, "unit": "%"}, {"measurement": "inhibition at 0.1 µM", "setting": "ACVR1 (ALK2)", "value": -5, "unit": "%"}, {"measurement": "inhibition at 0.1 µM", "setting": "MAP2K1 (MEK1)", "value": 5, "unit": "%"}, {"measurement": "inhibition at 0.1 µM", "setting": "VRK2", "value": 2, "unit": "%"}, {"measurement": "inhibition at 0.1 µM", "setting": "ACVRL1 (ALK1)", "value": 2, "unit": "%"}, {"measurement": "inhibition at 0.1 µM", "setting": "PKN2 (PRK2)", "value": 11, "unit": "%"}, {"measurement": "inhibition at 0.1 µM", "setting": "ULK1", "value": 1, "unit": "%"}, {"measurement": "inhibition at 0.1 µM", "setting": "WEE1", "value": 4, "unit": "%"}, {"measurement": "inhibition at 0.1 µM", "setting": "KIT V559D T670I", "value": 16, "unit": "%"}, {"measurement": "inhibition at 0.1 µM", "setting": "MAP2K6 (MKK6)", "value": -3, "unit": "%"}, {"measurement": "inhibition at 0.1 µM", "setting": "CDK9 (Inactive)", "value": 44, "unit": "%"}, {"measurement": "inhibition at 0.1 µM", "setting": "AMPK (A2/B2/G2)", "value": 11, "unit": "%"}, {"measurement": "inhibition at 0.1 µM", "setting": "ERN2", "value": 2, "unit": "%"}, {"measurement": "inhibition at 0.1 µM", "setting": "ANKK1", "value": 2, "unit": "%"}, {"measurement": "% Inhibition Avg", "setting": "FLT3 ITD", "value": 36, "unit": "%"}, {"measurement": "inhibition at 0.1 µM", "setting": "WNK3", "value": 2, "unit": "%"}, {"measurement": "inhibition at 0.1 µM", "setting": "RIPK3", "value": -9, "unit": "%"}, {"measurement": "inhibition at 0.1 µM", "setting": "MAP3K11 (MLK3)", "value": 13, "unit": "%"}, {"measurement": "inhibition at 0.1 µM", "setting": "CDK3/cyclin E1", "value": 88, "unit": "%"}, {"measurement": "inhibition at 0.1 µM", "setting": "ALK L1196M", "value": 7, "unit": "%"}, {"measurement": "inhibition at 0.1 µM", "setting": "DYRK2", "value": -4, "unit": "%"}, {"measurement": "inhibition at 0.1 µM", "setting": "PKMYT1", "value": -2, "unit": "%"}, {"measurement": "inhibition at 0.1 µM", "setting": "TESK2", "value": -1, "unit": "%"}, {"measurement": "inhibition at 0.1 µM", "setting": "WNK1", "value": 4, "unit": "%"}, {"measurement": "inhibition at 0.1 µM", "setting": "ACVR2A", "value": 3, "unit": "%"}, {"measurement": "inhibition at 0.1 µM", "setting": "ALK R1275Q", "value": 10, "unit": "%"}, {"measurement": "inhibition at 0.1 µM", "setting": "CDK13/cyclin K", "value": 39, "unit": "%"}, {"measurement": "inhibition at 0.1 µM", "setting": "MAP3K3 (MEKK3)", "value": 18, "unit": "%"}, {"measurement": "inhibition at 0.1 µM", "setting": "CASK", "value": -3, "unit": "%"}, {"measurement": "inhibition at 0.1 µM", "setting": "CAMKK2 (CaMKK beta)", "value": 3, "unit": "%"}, {"measurement": "inhibition at 0.1 µM", "setting": "CDK2/cyclin E1", "value": 98, "unit": "%"}, {"measurement": "inhibition at 0.1 µM", "setting": "KIT D816V", "value": 34, "unit": "%"}, {"measurement": "inhibition at 0.1 µM", "setting": "TEK (TIE2) Y1108F", "value": 2, "unit": "%"}, {"measurement": "inhibition at 0.1 µM", "setting": "KIT Y823D", "value": 31, "unit": "%"}, {"measurement": "inhibition at 0.1 µM", "setting": "DDR1", "value": 3, "unit": "%"}, {"measurement": "inhibition at 0.1 µM", "setting": "ACVR2B", "value": -2, "unit": "%"}, {"measurement": "inhibition at 0.1 µM", "setting": "KIT D816H", "value": 38, "unit": "%"}]}]}
